# From patent US10611731B2, “5-methyl-6-phenyl-4,5-dihydro-2H-pyridazin-3-one derivative” (OTSUKA PHARMACEUTICAL CO., LTD., priority 2016, dated 2020)
# pIC50: −log10 of the molar value.
# System: human childhood brain tumor cell lines (PFSK-1)
# Experiment: Growth inhibitory activity against PFSK-1 cells (WST-8, Cell Counting Kit-8)
# Type: cell-based
# Settings: Homo sapiens, 72 h, 3 days incubation with test compound, WST-8 OD 450/630 nm, read-out: IC50 (concentration inhibiting 50% of the cell growth)
# Experimental: The growth inhibitory activity against human childhood brain tumor cell lines (PFSK-1) was measured with WST-8 reagent [2-(2-methoxy-4-nitrophenyl)-3-(4-nitrophenyl)-5-(2,4-disulfophenyl)-2H-tetrazolium monosodium salt, Cell Counting Kit-8™], according to the method described in Tominaga, H. et al., Anal. Commun., 1999, 36, 47-50. Briefly, PFSK-1 was seeded in 96-well microplate at 100 μL/well with Roswell Park Memorial Institute (RPMI) 1640 medium containing 10% fetal bovine serum (FBS), and the cells were incubated in the presence of 5% carbon dioxide (CO2) at 37° C. for 24 hours. 50 μL of each test compound diluted with the medium was added to each well, and then the cells were incubated further for 3 days. After the incubation, 15 μL of Cell Counting Kit-8™ was added to each well, and the cells were incubated for one and half hours. Then, optical density (OD) values at measurement wavelength 450 nm and reference wavelength 630 nm were measured and the difference thereof was calculated. From the calculated difference, the OD value difference (at measurement wavelength 450 nm and reference wavelength 630 nm) of the control well which includes no cell was subtracted to afford cell-growth activity in each well.
# The cell growth inhibitory activity of each test compound was calculated by comparing the cell-growth activity with each test compound to the cell-growth activity without any test compound (control), and each IC50 (nM) which is the concentration inhibiting 50% of the cell growth was calculated.
row,Compound,pIC50
1,"C=Cc1c(OCC(C)O)ccc(C2=NNC(=O)CC2C)c1F (stereo not drawn) [Example 59, 6-[2-fluoro-4-(2-hydroxypropoxy)-3-vinylphenyl]-5-methyl-4,5-dihydro-2H-pyridazin-3-one]",8.66
2,"Cc1cc(C2=NNC(=O)CC2C)c(F)c(C)c1OC/C=C\CO (stereo not drawn) [Example 150, 6-{2-Fluoro-4-[(Z)-4-hydroxy-2-butenyloxy]-3,5-dimethylphenyl}-5-methyl-4,5-dihydro-2H-pyridazin-3-one]",8.43
3,"CC(O)COc1c(Cl)cc(C2=NNC(=O)CC2C)cc1Cl (stereo not drawn) [Example 53, 6-[3,5-dichloro-4-(2-hydroxypropoxy)phenyl]-5-methyl-4,5-dihydro-2H-pyridazin-3-one]",8.72
4,"CC1CC(=O)NN=C1c1cc(F)c(OCC(F)(F)CO)c(Cl)c1 (stereo not drawn) [Example 111, 6-[3-Chloro-4-(2,2-difluoro-3-hydroxypropoxy)-5-fluorophenyl]-5-methyl-4,5-dihydro-2H-pyridazin-3-one]",8.52
5,"CC1CC(=O)NN=C1c1cc(F)c(OCC2(O)CC2)c(Cl)c1F (stereo not drawn) [Example 172, 6-{3-Chloro-2,5-difluoro-4-[(1-hydroxycyclopropyl)methoxy]phenyl}-5-methyl-4,5-dihydro-2H-pyridazin-3-one]",8.28
6,"CC(O)COc1ccc(C2=NNC(=O)CC2C)c(F)c1F (stereo not drawn) [Example 49, 6-[2,3-Difluoro-4-(2-hydroxypropoxy)phenyl]-5-methyl-4,5-dihydro-2H-pyridazin-3-one]",8.55
7,"CC1CC(=O)NN=C1c1cc(Cl)c(OCC(C)(C)O)c(Cl)c1 (stereo not drawn) [Example 2, 6-[3,5-dichloro-4-(2-hydroxy-2-methylpropoxy)phenyl]-5-methyl-4,5-dihydro-2H-pyridazin-3-one]",9.00
8,"Cc1cc(C2=NNC(=O)CC2C)c(F)c(Cl)c1OCC(C)(C)CO (stereo not drawn) [Example 137, 6-[3-chloro-2-fluoro-4-(3-hydroxy-2,2-dimethylpropoxy)-5-methylphenyl]-5-methyl-4,5-dihydro-2H-pyridazin-3-one]",> 9.00
9,"Cc1c(OCC(F)(F)CO)ccc(C2=NNC(=O)CC2C)c1O (stereo not drawn) [Example 115, 6-[4-(2,2-difluoro-3-hydroxypropoxy)-2-hydroxy-3-methylphenyl]-5-methyl-4,5-dihydro-2H-pyridazin-3-one]",8.23
10,"Cc1c(OCC(F)(F)CO)ccc(C2=NNC(=O)C[C@H]2C)c1F [Example 120, (5R)-(−)-6-[4-(2,2-difluoro-3-hydroxypropoxy)-2-fluoro-3-methylphenyl]-5-methyl-4,5-dihydro-2H-pyridazin-3-one]",8.62
11,"CC(O)COc1ccc(C2=NNC(=O)CC2C)c(F)c1Cl (stereo not drawn) [Example 54, 6-[3-chloro-2-fluoro-4-(2-hydroxypropoxy)phenyl]-5-methyl-4,5-dihydro-2H-pyridazin-3-one]",9.30
12,"CC1CC(=O)NN=C1c1cc(Cl)c(OCCCO)c(Cl)c1 (stereo not drawn) [Example 16, 6-[3,5-Dichloro-4-(3-hydroxypropoxy)phenyl]-5-methyl-4,5-dihydro-2H-pyridazin-3-one]",8.44
13,"C[C@@H]1CC(=O)NN=C1c1ccc(OCC(C)(C)CO)c(Cl)c1F [Example 122, (5R)-(−)-6-[3-Chloro-2-fluoro-4-(3-hydroxy-2,2-dimethylpropoxy)phenyl]-5-methyl-4,5-dihydro-2H-pyridazin-3-one]",8.39
14,"Cc1c(F)c(C2=NNC(=O)CC2C)cc(Cl)c1OCC(C)O (stereo not drawn) [Example 147, 6-[5-Chloro-2-fluoro-4-(2-hydroxypropoxy)-3-methylphenyl]-5-methyl-4,5-dihydro-2H-pyridazin-3-one]",8.12
15,"CCC(O)COc1ccc(C2=NNC(=O)CC2C)c(F)c1F (stereo not drawn) [Example 61, 6-[2,3-Difluoro-4-(2-hydroxybutoxy)phenyl]-5-methyl-4,5-dihydro-2H-pyridazin-3-one]",8.33
16,"CC1CC(=O)NN=C1c1ccc(OCC(C)(C)CCO)c(Cl)c1O (stereo not drawn) [Example 146, 6-[3-chloro-2-hydroxy-4-(4-hydroxy-2,2-dimethylbutoxy)phenyl]-5-methyl-4,5-dihydro-2H-pyridazin-3-one]",8.17
17,"CC1CC(=O)NN=C1c1cc(Cl)c(OCC2(O)CC2)c(Br)c1 (stereo not drawn) [Example 165, 6-{3-bromo-5-chloro-4-[(1-hydroxycyclopropyl)methoxy]phenyl}-5-methyl-4,5-dihydro-2H-pyridazin-3-one]",8.59
18,"Cc1cc(C2=NNC(=O)CC2C)c(F)c(Cl)c1OCC(F)(F)CO (stereo not drawn) [Example 159, 6-[3-Chloro-4-(2,2-difluoro-3-hydroxypropoxy)-2-fluoro-5-methylphenyl]-5-methyl-4,5-dihydro-2H-pyridazin-3-one]",> 9.00
19,"CC1CC(=O)NN=C1c1ccc(OCC(C)(C)O)c(C(F)(F)F)c1F (stereo not drawn) [Example 184, 6-[2-fluoro-4-(2-hydroxy-2-methylpropoxy)-3-(trifluromethyl)phenyl]-5-methyl-4,5-dihydro-2H-pyridazin-3-one]",8.66
20,"Cc1cc(C2=NNC(=O)CC2C)c(F)c(Cl)c1OCC(C)O (stereo not drawn) [Example 148, 6-[3-Chloro-2-fluoro-4-(2-hydroxypropoxy)-5-methylphenyl]-5-methyl-4,5-dihydro-2H-pyridazin-3-one]",> 9.00
21,"Cc1cc(C2=NNC(=O)CC2C)c(F)cc1OC(F)(F)CO (stereo not drawn) [Example 177, 6-[4-(1,1-difluoro-2-hydroxyethoxy)-2-fluoro-5-methylphenyl]-5-methyl-4,5-dihydro-2H-pyridazin-3-one]",8.40

# The remaining lines, values ahead:
row,pIC50,Compound
1,8.20,"Cc1cc(C2=NNC(=O)CC2C)c(F)c(C)c1OCC1(O)CC1 (stereo not drawn) [Example 171, 6-{2-Fluoro-4-[(1-hydroxycyclopropyl)methoxy]-3,5-dimethylphenyl}-5-methyl-4,5-dihydro-2H-pyridazin-3-one]"
2,8.89,"CC1CC(=O)NN=C1c1ccc(OCCCO)c(Cl)c1F (stereo not drawn) [Example 19, 6-[3-chloro-2-fluoro-4-(3-hydroxypropoxy)phenyl]-5-methyl-4,5-dihydro-2H-pyridazin-3-one]"
3,8.72,"Cc1cc(C2=NNC(=O)CC2C)cc(Cl)c1OCC(C)O (stereo not drawn) [Example 55, 6-[3-chloro-4-(2-hydroxypropoxy)-5-methylphenyl]-5-methyl-4,5-dihydro-2H-pyridazin-3-one]"
4,8.72,"Cc1cc(C2=NNC(=O)CC2C)c(F)c(C)c1OCC(F)(F)CO (stereo not drawn) [Example 160, 6-[4-(2,2-Difluoro-3-hydroxypropoxy)-2-fluoro-3,5-dimethylphenyl]-5-methyl-4,5-dihydro-2H-pyridazin-3-one]"
5,9.00,"Cc1cc(C2=NNC(=O)CC2C)cc(Cl)c1OCC1(O)CC1 (stereo not drawn) [Example 44, 6-{3-chloro-4-[(1-hydroxycyclopropyl)methoxy]-5-methylphenyl}-5-methyl-4,5-dihydro-2H-pyridazin-3-one]"
6,8.60,"CC1CC(=O)NN=C1c1cc(Cl)c(OCC2(O)CC2)c(Cl)c1 (stereo not drawn) [Example 170, 6-{3,5-Dichloro-4-[(1-hydroxycyclopropyl)methoxy]phenyl}-5-methyl-4,5-dihydro-2H-pyridazin-3-one]"
7,8.41,"Cc1c(OCC2(O)CC2)ccc(C2=NNC(=O)CC2C)c1F (stereo not drawn) [Example 46, 6-{2-Fluoro-4-[(1-hydroxycyclopropyl)methoxy]-3-methylphenyl}-5-methyl-4,5-dihydro-2H-pyridazin-3-one]"
8,8.41,"C=Cc1c(OC/C=C\CO)ccc(C2=NNC(=O)CC2C)c1F (stereo not drawn) [Example 96, 6-{2-Fluoro-4-[(Z)-4-hydroxy-2-butenyloxy]-3-vinylphenyl}-5-methyl-4,5-dihydro-2H-pyridazin-3-one]"
9,8.52,"C[C@@H]1CC(=O)NN=C1c1cc(F)c(OCC(C)(C)O)c(F)c1 [Example 117, (5R)-(−)-6-[3,5-Difluoro-4-(2-hydroxy-2-methylpropoxy)phenyl]-5-methyl-4,5-dihydro-2H-pyridazin-3-one]"
10,8.48,"C[C@@H]1CC(=O)NN=C1c1ccc(OCC2(O)CC2)c(F)c1F [Example 123, (5R)-(−)-6-[2,3-Difluoro-4-[(1-hydroxycyclopropyl)methoxy]phenyl]-5-methyl-4,5-dihydro-2H-pyridazin-3-one]"
11,8.38,"Cc1cc(C2=NNC(=O)CC2C)cc(F)c1OCCCO (stereo not drawn) [Example 20, 6-[3-Fluoro-4-(3-hydroxypropoxy)-5-methylphenyl]-5-methyl-4,5-dihydro-2H-pyridazin-3-one]"
12,9.05,"CC(O)COc1ccc(C2=NNC(=O)CC2C)c(F)c1Br (stereo not drawn) [Example 48, 6-[3-bromo-2-fluoro-4-(2-hydroxypropoxy)phenyl]-5-methyl-4,5-dihydro-2H-pyridazin-3-one]"
13,8.96,"CC1CC(=O)NN=C1c1cc(Cl)c(OCC(C)(C)O)c(Br)c1 (stereo not drawn) [Example 1, 6-[3-bromo-5-chloro-4-(2-hydroxy-2-methylpropoxy)phenyl]-5-methyl-4,5-dihydro-2H-pyridazin-3-one]"
14,> 9.00,"CC(O)COc1c(Cl)cc(C2=NNC(=O)CC2C)cc1Br (stereo not drawn) [Example 57, 6-[3-bromo-5-chloro-4-(2-hydroxypropoxy)phenyl]-5-methyl-4,5-dihydro-2H-pyridazin-3-one]"
15,8.92,"CC1CC(=O)NN=C1c1cc(F)c(OCC(C)(C)CO)c(Br)c1 (stereo not drawn) [Example 69, 6-[3-bromo-5-fluoro-4-(3-hydroxy-2,2-dimethylpropoxy)phenyl]-5-methyl-4,5-dihydro-2H-pyridazin-3-one]"
